Experiments:
[1] = system: Achaea janata; assay: Antifeedant activity against prestarved healthy third-instar larval stage of Achaea janata assessed as area of leaf consumed after 6 hr by conventional no-choice leaf-disk bioassay; assay type: functional
[2] = system: Spodoptera litura; assay: Antifeedant activity against prestarved healthy third-instar larval stage of Spodoptera litura assessed as area of leaf consumed after 6 hr by conventional no-choice leaf-disk bioassay; assay type: functional

SMILES | ED50 [1] [microg/cm2] | ED50 [2] [microg/cm2]
COc1cccc2c1C(=O)C(NCc1ccccc1)=C(C)C2=O | >500 | >500
COc1cccc2c1C(=O)C(NCc1ccc(C(F)(F)F)cc1)=C(C)C2=O | 21.82 | >500
CCCCCCCCCCNC1=C(C)C(=O)c2cccc(OC)c2C1=O | 30.25 | 31.109
COc1cccc2c1C(=O)C(NCc1ccc(F)cc1)=C(C)C2=O | 51.091 | 302.32
CCNC1=C(C)C(=O)c2cccc(OC)c2C1=O | 24.41 | >500
CCCCCCNC1=C(C)C(=O)c2cccc(OC)c2C1=O | 73.31 | 278.34
CCCCCCCC/C=C/CCCCCCCCNC1=C(C)C(=O)c2cccc(OC)c2C1=O | 26.49 | 180.36
CCCCCCCCCCCCNC1=C(C)C(=O)c2cccc(OC)c2C1=O | 59.62 | >500
C/C=C(\C)C(=O)O[C@H]1C[C@@H](OC(C)=O)[C@@]2(C(=O)OC)CO[C@H]3[C@@H](O)[C@@](C)([C@]45O[C@@]4(C)[C@@H]4C[C@H]5O[C@@H]5OC=C[C@@]54O)[C@H]4[C@]1(CO[C@]4(O)C(=O)OC)[C@@H]32 [AZADIRACHTIN A] | 0.72 | 0.89
CCCCCCCCNC1=C(C)C(=O)c2cccc(OC)c2C1=O | 44.76 | >500
CCCCNC1=C(C)C(=O)c2cccc(OC)c2C1=O | >500 | 64.08
CCCCCCCCCCCCCCCCNC1=C(C)C(=O)c2cccc(OC)c2C1=O | 64.23 | 16.77
COc1ccc(CNC2=C(C)C(=O)c3cccc(OC)c3C2=O)cc1 | >500 | >500
C=CCNC1=C(C)C(=O)c2cccc(OC)c2C1=O | 13.51 | 31.22
CC1=CC(=O)c2c(O)cccc2C1=O [PLUMBAGIN] | 23.97 | 43.71
CCCNC1=C(C)C(=O)c2cccc(OC)c2C1=O | >500 | >500
CCCCCCCCCNC1=C(C)C(=O)c2cccc(OC)c2C1=O | 24.04 | 32.5

From ChEMBL document CHEMBL3045389, “Synthesis and insect antifeedant activity of plumbagin derivatives” (2012)
